These are literature values, as cited in US20130210861A1, “METHODS AND COMPOSITIONS FOR MANAGING CARDIOVASCULAR DISEASE ASSOCIATED WITH CHRONIC KIDNEY DISEASE” (priority 2011, published 2013).

Read-outs that look alike come from different tables or passages of the source.

The conditions of data set [1]: Lumina cohort, southern US.
For data set [2] the following is noted: Latin American cohort.
For data set [3] the following is noted: HCQ use.
For data set [4] the following is noted: multiple rheumatological cohorts with CVD.
Assay in data set [5]: not given
The source holds these as a separate data set.

In data set [6] the test system is APO E -/- mice.
The test system of data set [7] is matrix metallo proteinase-9 (MMP-9). The settings on record: SLE patients.
The conditions of data set [8]: patients with inflammatory disorders.

Regarding `CCN(CCO)CCCC(C)Nc1ccnc2cc(Cl)ccc12` (centres unmarked) [HCQ, hydroxychloroquine], the “cardiovascular deaths in patients using HCQ” value (232 patients, 52-month study period, 7 deaths in those never exposed to HCQ) was “zero”. Where the note is “Spanish trial cohort, HCQ use”, the “HR for death from any cause” value was 0.14. In addition, the figures for the OR for death in data set [1], in [2] and in data set [4] were 0.31, 0.62 and 0.12-0.49, respectively. Moreover, in [3], the “OR for metabolic syndrome” value is given as 0.13. Also, the “OR for vascular events” value in data set [3] is recorded as 0.3. The absorption entry in data set [5] (200 mg tablet) is “absorbed rapidly and completely”. For the same compound, the elimination half-life in data set [5] (200 mg tablet (155 mg of base)) was 32 to 50 days. Besides, the plasma protein binding result in [5] (in vivo) was “moderate”. In addition, the atheroprotection entry in data set [6] is “significant atheroprotection”. In addition, the MMP-9 secretion entry in [7] is “inhibited”. Moreover, the fasting glucose result in data set [8] is on record as “lowered”.
Turning to `CCN(CC)CCCC(C)Nc1ccnc2cc(Cl)ccc12` (centres unmarked) [Chloroquine], the atheroprotection result in [6] is listed as “significant atheroprotection activity”.
